Data taken from publication PMC12261321, “Inhibitors of the Bacterioferritin Ferredoxin Complex Dysregulate Iron Homeostasis and Kill and Biofilm-Embedded Cells” (ACS Infectious Diseases, 2025).
In brackets after ≈: the same amount, converted by molar mass.

Key:
P. aeruginosa PAO1 = test: Half maximal inhibitory concentration (IC50), planktonic growth (CFU/mL); format: cell-based; conditions: M63 media, 18 h
Protocol: Measurement of Half Maximal Inhibitory Concentration (IC50). IC50 values were determined as reported earlier13 with some modifications. Compound stock solutions in DMSO (100 mM and 10 mM) were prepared from powd er. To prep are the cell susp ensions utilized in the measu rements, starter cultures o f P. aeru ginosa wer e diluted to an optical density at 600 nm (OD600) = 0.005 in fresh LB media (5 mL) and then cultured at 37°C and 220 rpm for 4 h prior to diluting to an OD600 = 0.0001 in M63. A small volume of compound stock solution w as further diluted in DMSO to 30 µL and then diluted in M63 cell suspension to a final volume of 2.0 mL. The resultant solution was placed in a well of a 96-well plate and then serially 2-fold diluted in M63 cell suspension to produce 6 distinct com pound concent rations, each with 1.5% DMSO. Th e plate was co ver ed and incubated for 18 h at 35 °C in a Synergy H1 plate reader (Biotek). The resultant cell cultures were serially diluted in PBS and then plated on PI Agar plates (PIA; BD biosciences) for counting viable cells (CFU/mL). The % growth was calculated from the ratio CFU/mL(t reat ed )/CFU/mL(untreated control). To calculate the IC50 values, the % growth was plotted as a function of compound concentration expressed as log[compound] ( µM), and fitted to equation S1 describing the sigmoid- shaped response pattern, 14 where b is the slope factor, max is the upper asymptote (plateau), and min is the lower asymptote. IC 50 values are the average and standard deviation from three independent experiments , each conducted with thr ee techni cal replicates.

[1] = Determination of compound aqueous solubility in M63 media; format: physicochemical; conditions: in M63 media at 35 °C
Protocol: Determination of Compound Aqueous Solubility. Compound stocks (100 mM in DMSO) were prepared from […]
powder and then further diluted with DMSO to prepare 20 mM working solutions, which were diluted as needed […]
in DMSO. 15 µL o f the DMSO solution was then d iluted to a final volume o f 1.0 mL in M63 media. Six solutions […]
were prepared for each compound, each with a distinct concentration and 1.5% DMSO (v/v). 700 µL of each […]
compound solution was transferred to a polystyrene 48-well plate (VWR), followed by acquisition of UV-vis […]
spectra (300 to 700 nm) with the aid of an Epoch 2 microplate reader (B i o Te k ). […]
Following the acquisition of UV-vis spectra, each of the wells in the plate was inspected under a […]
microscope for evidence of precipitation. Evidence of precipitation at any given concentration was determined by observing a shift in the baseline of the UV-vis spectra relative to the blank (M63 media) and/or evidence of visual precipitation with the aid of a micros cope. […]

[2] = tested on: P. aeruginosa PAO1 biofilm; test: Pellicle biofilm assay, % survival of biofilm cells; format: cell-based; conditions: for % Survival Biofilm, P. aeruginosa PAO1: 24 h; for biofilm cell death: 27 h old pellicle biofilms treated 24 h
Protocol: We studied the susceptibility of mature biofilms to treatment with analogues of 4-aminoisoindoline-1,3-dione using biofilms cultured at the […] interface (pellicles) using methodology reported previously. To determine the susceptibility of pellicle biofilms to inhibitors of the Pa Bfr–Bfd complex, we cultured 27 h old biofilms in PI media supplemented with 20 μM Fe, as presented in Experimental Methods. The mature biofilms were transferred onto glass coverslips by touching the pellicle with the surface of the coverslips. The coverslip-adhered biofilms were then exposed to treatment solution consisting of AB media supplemented with 20 μM Fe, 1.5% DMSO, 0.025% HPMC, and 4-aminoisoindoline-1,3-dione derivative or commercial antibiotic for 24 h. The biofilms were then harvested and washed, and the cells were dispersed into sterile PBS by vortexing in the presence of zirconia beads prior to plating and enumerating viable cells (CFU/mL) to calculate % cell survival.
Biofilm Assays. Pellicle biofilms formed by EYF P-expressing P. aeruginosa PAO1 wer e carried ou t as repo rted previously,13 with some modifications. Starter cultures were diluted to OD600 = 0.001 in 4 mL PI media supplement ed with 20 µM Fe , trans ferred to petri dishes (35 x 10 mm) and incubated statically for 27 h at 30 °C.
The pellicles were transferred onto circular microscope glass coverslips (12 mm diameter) by gently allowing the surface of a coverslip to contact the pellicle. Th e biofilm- attached coverslip was washed (3 x) by floating it on top of PBS with the biofilm exposed to the liquid and then placed on top of 1.5 mL AB challenge media in a well of a 12-well microplate, with the biofilm exposed to the media at 30 °C for 24 h. AB challenge media is AB minimal media supplemented with 1.5% DMSO, 0.025% HPMC, 20 μ M Fe, and 4-aminoisoindoline-1,3- dione […]
The 4-aminoisoindoline-1,3- dione derivative solutions were prep ared from powder as 10 mM st ock solutions in DMSO and then diluted in AB challenge media to the appropriate concentrations. Following the 24 h challenge, planktonic and loosely attached cells were washed 3 times by floating the coverslip-attached biofilms with the biofilm facing down into a petri d ish (60 x 15 mm) containing 15 mL PBS, and incubating for 5 min. The biofilm was removed from the coversli p and the cells releas ed f rom the extra cel lular matrix by placing th e cov erslip-attach ed biofi lm in a 50 mL conical tub e containing a 2-mL sup ension of zirconia beads (0.1 mm diam eter, BiosSpec Produ cts), 10 mL PBS, 1 mM MgSO4, 20 µg/mL alginate lyase and 40 µg/mL DNAse. The mixture was incubated for three min at room temperature, and then vigorously vortexed for four min. Following sedimentation of the zirconia beads, a 100 μ L aliquot was utilized for serial dilution in PBS and plating on PIA plates for viable cell enumeration (CFU/mL). […]

[3] = Pseudomonas aeruginosa, PAO1, planktonic cells
[4] = M63 media with 1.5% DMSO, 35 °C, aqueous buffer, kinetic from dmso stock
[5] = biofilm challenged with 50 µM compound
[6] = biofilm challenged with 30 µM compound
[7] = biofilm challenged with 20 µM compound

| Structure (SMILES) | % Survival Biofilm, P. aeruginosa PAO1 [2, 5] | IC50 (P. aeruginosa PAO1; planktonic cells) [µM] | solubility at 4 h [1] [µM] | also measured |
| --- | --- | --- | --- | --- |
| O=C1NC(=O)c2c(NCc3ccccc3O)cccc21 [Analog 11, 4-((2-Hydroxybenzyl)amino)isoindoline-1,3-dione] | 87 ± 6% |  |  | IC50 (P. aeruginosa PAO1; [3]): 178 ± 14 µM; solubility at 4 h [1, 4]: 200 µM (≈ 53.7 µg/mL) |
| O=C1NC(=O)c2c(NCc3ccc(Br)cc3O)cccc21 [EB-5-61] | 8 ± 2% | 24 ± 2 | 60 (≈ 20.8 µg/mL) |  |
| Cc1ccc(CNc2cccc3c2C(=O)NC3=O)c(O)c1 [EB-5-69] | 64 ± 1% |  | 80 (≈ 22.6 µg/mL) | IC50, P. aeruginosa PAO1 (P. aeruginosa PAO1; planktonic cells): Not active |
| Cc1cccc(CNc2cccc3c2C(=O)NC3=O)c1O [EB-5-70] | 105 ± 2% |  | 100 (≈ 28.2 µg/mL) | IC50, P. aeruginosa PAO1 (P. aeruginosa PAO1; planktonic cells): Not active |
| O=C1NC(=O)c2c(NCc3c(O)cccc3F)cccc21 [EB-5-71] | 52 ± 10% | 80 ± 10 | 150 (≈ 42.9 µg/mL) |  |
| O=C1NC(=O)c2c(NCc3c(O)cccc3Br)cccc21 [EB-5-72] | 45 ± 0.4% | 32 ± 5 | 60 (≈ 20.8 µg/mL) |  |
| O=C1NC(=O)c2c(NCc3cccc(Br)c3O)cccc21 [EB-5-73] |  |  | 40 (≈ 13.9 µg/mL) | IC50, P. aeruginosa PAO1 (P. aeruginosa PAO1; planktonic cells): Not active; % Survival Biofilm, P. aeruginosa PAO1 [2, 6]: 78 ± 14% |
| O=C1NC(=O)c2c(NCc3cccc(F)c3O)cccc21 [EB-5-80] | 106 ± 23% |  | 100 (≈ 28.6 µg/mL) | IC50, P. aeruginosa PAO1 (P. aeruginosa PAO1; planktonic cells): Not active |
| O=C1NC(=O)c2c(NCc3cc(F)ccc3O)cccc21 [JAG-5-7] | 85 ± 16% |  |  | IC50 (P. aeruginosa PAO1; [3]): 83 ± 19 µM; solubility at 4 h [1, 4]: 180 µM (≈ 51.5 µg/mL) |
| O=C1NC(=O)c2c(NCc3cc(Cl)ccc3O)cccc21 [KM-5-25, 4-((5-Chloro-2-hydroxybenzyl)amino)isoindoline-1,3-dione] | 17 ± 6% | 31 ± 7 | 80 (≈ 24.2 µg/mL) | biofilm cell death [2]: concentration-dependent biofilm cell death |
| O=C1NC(=O)c2c(NCc3c(O)cccc3Cl)cccc21 [KM-5-29] | 50 ± 7% | 36 ± 5 | 60 (≈ 18.2 µg/mL) |  |
| O=C1NC(=O)c2c(NCc3cccc(Cl)c3O)cccc21 [KM-5-30] | 72 ± 11% | 57 ± 2 | 80 (≈ 24.2 µg/mL) |  |
| O=C1NC(=O)c2c(NCc3cc(Br)ccc3O)cccc21 [KM-5-35, 4-((5-Bromo-2-hydroxybenzyl)amino)isoindoline-1,3-dione] | 10 ± 4% | 27 ± 3 | 60 (≈ 20.8 µg/mL) | biofilm cell death [2]: concentration-dependent biofilm cell death |
| O=C1NC(=O)c2c(NCc3cc(Cl)ccc3O)ccc(Br)c21 [SB-16-51] |  | 18 ± 3 | 20 (≈ 7.63 µg/mL) | % Survival Biofilm, P. aeruginosa PAO1 [2, 7]: 53 ± 9% |
| CC(C)(C)c1ccc(O)c(CNc2cccc3c2C(=O)NC3=O)c1 [SB-16-53] |  |  |  | IC50 (P. aeruginosa PAO1; [3]): 12 ± 6 µM; solubility at 4 h [1, 4]: 30 µM (≈ 9.73 µg/mL); % Survival Biofilm, P. aeruginosa PAO1 [2, 6]: 48 ± 10% |
| O=C1NC(=O)c2c(NCc3cc(F)ccc3O)ccc(Br)c21 [SB-16-67] |  | > 40 | 40 (≈ 14.6 µg/mL) |  |
| Cc1cc(Br)cc(CNc2cccc3c2C(=O)NC3=O)c1O [SB-16-106] |  | 14 ± 4 | 30 (≈ 10.8 µg/mL) | % Survival Biofilm, P. aeruginosa PAO1 [2, 6]: 42 ± 9% |
| O=C1NC(=O)c2c(NCc3cc(Br)c(F)cc3O)cccc21 [SB-16-112] |  | 14 ± 3 | 30 (≈ 11 µg/mL) | % Survival Biofilm, P. aeruginosa PAO1 [2, 6]: 15 ± 0.7% |
| O=C1NC(=O)c2c(NCc3cc(Br)cc(F)c3O)cccc21 [SB-16-118] |  | 25 ± 8 | 40 (≈ 14.6 µg/mL) | % Survival Biofilm, P. aeruginosa PAO1 ([2]; biofilm challenged with 40 µM compound): 13 ± 2% |
| O=C1NC(=O)c2c(NCc3cc(Br)ccc3O)ccc(Cl)c21 [SB-16-124] |  | 17 ± 2 | 20 (≈ 7.63 µg/mL) | % Survival Biofilm, P. aeruginosa PAO1 [2, 7]: Not active |
| O=C1NC(=O)c2c(NCc3cc(Br)cc(O)c3O)cccc21 [SB-16-136] | 63 ± 2% | 20 ± 5 | 60 (≈ 21.8 µg/mL) |  |
| O=C1NC(=O)c2c(NCc3cc(Br)c(O)cc3O)cccc21 [SB-16-137] | 78 ± 21% | 37 ± 4 | 80 (≈ 29.1 µg/mL) |  |
| Cc1cc(Cl)cc(CNc2cccc3c2C(=O)NC3=O)c1O [SB-16-156] |  | 21 ± 5 | 40 (≈ 12.7 µg/mL) | % Survival Biofilm, P. aeruginosa PAO1 [2, 6]: 44 ± 18% |
| O=C1NC(=O)c2c(NCc3cc(Cl)c(O)cc3O)cccc21 [SB-16-160] | Not active | 45 ± 6 | 80 (≈ 25.5 µg/mL) |  |
| O=C1NC(=O)c2c(NCc3cc(Cl)cc(O)c3O)cccc21 [SB-16-168] | Not active |  |  | IC50 (P. aeruginosa PAO1; [3]): 15 ± 7 µM; solubility at 4 h [1, 4]: 40 µM (≈ 12.7 µg/mL) |
| Cc1cc(CNc2cccc3c2C(=O)NC3=O)c(O)cc1Br [SB-16-183] |  | 13 ± 1 | 20 (≈ 7.22 µg/mL) | % Survival Biofilm, P. aeruginosa PAO1 [2, 7]: 43 ± 3% |
| O=C1NC(=O)c2c(NCc3cc(Br)cc(O)c3O)ccc(Br)c21 [SB-16-250] |  | 5 ± 2 | 20 (≈ 8.84 µg/mL) | % Survival Biofilm, P. aeruginosa PAO1 [2, 7]: Not active |
| O=C1NC(=O)c2c(NCc3ccc4c(c3)COC4)cccc21 [SB-17-80] |  |  | 20 (≈ 5.89 µg/mL) | IC50, P. aeruginosa PAO1 (P. aeruginosa PAO1; planktonic cells): Not active; % Survival Biofilm, P. aeruginosa PAO1 [2, 7]: Not active |
| O=C1NC(=O)c2c(NCc3cccc4c3CCN4)cccc21 [SB-17-140] | Not active |  |  | IC50, P. aeruginosa PAO1 (P. aeruginosa PAO1; planktonic cells): Not active; solubility at 4 h [1, 4]: 100 µM (≈ 29.3 µg/mL) |
